System: 192522-019-R-J2-PDC complex tumor spheroid viability
Assay: Anticancer human tumor 192522-019-R-J2-PDC patient-derived colon adenocarcinoma cell line growth inhibition [POLQ]
Details: for IC50: curve of first compound; for viability, T/C: stronger effect = lower value
Procedure, shortened: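 Patient-derived tumour cells were co-cultured with HUVEC and mesenchymal stem cells as multicellular spheroids at 37 °C. They were treated with POLQ inhibitors (novobiocin, ART-558, RP6685) alone or combined with other agents. Top concentrations were at or near clinical Cmax (otherwise 10 microM; SN-38 at 1 microM), decreasing in half-log steps.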

[1] = second compound 0.0316 µM, first compound 0.0316 µM
[2] = second compound 0.0316 µM, first compound 0.1 µM
[3] = second compound 0.0316 µM, first compound 0.316 µM
[4] = second compound 0.0316 µM, first compound 1 µM
[5] = second compound 0.1 µM, first compound 0.0316 µM
[6] = second compound 0.1 µM, first compound 0.1 µM
[7] = second compound 0.1 µM, first compound 0.316 µM
[8] = second compound 0.1 µM, first compound 1 µM
[9] = second compound 0.316 µM, first compound 0.0316 µM
[10] = second compound 0.316 µM, first compound 0.1 µM
[11] = second compound 0.316 µM, first compound 0.316 µM
[12] = second compound 0.316 µM, first compound 1 µM
[13] = second compound 1 µM, first compound 0.0316 µM
[14] = second compound 1 µM, first compound 0.1 µM
[15] = second compound 1 µM, first compound 0.316 µM
[16] = second compound 1 µM, first compound 1 µM
[17] = second compound 3.16 µM, first compound 0.0316 µM
[18] = second compound 3.16 µM, first compound 0.1 µM
[19] = second compound 3.16 µM, first compound 0.316 µM
[20] = second compound 3.16 µM, first compound 1 µM
[21] = second compound 10 µM, first compound 0.0316 µM
[22] = second compound 10 µM, first compound 0.1 µM
[23] = second compound 10 µM, first compound 0.316 µM
[24] = second compound 10 µM, first compound 1 µM
[25] = second compound 0.0316 µM, first compound 3.16 µM
[26] = second compound 0.0316 µM, first compound 10 µM
[27] = second compound 0.1 µM, first compound 3.16 µM
[28] = second compound 0.1 µM, first compound 10 µM
[29] = second compound 0.316 µM, first compound 3.16 µM
[30] = second compound 0.316 µM, first compound 10 µM
[31] = second compound 1 µM, first compound 3.16 µM
[32] = second compound 1 µM, first compound 10 µM
[33] = second compound 3.16 µM, first compound 3.16 µM
[34] = second compound 3.16 µM, first compound 10 µM
[35] = second compound 10 µM, first compound 3.16 µM
[36] = second compound 10 µM, first compound 10 µM
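Also: spheroids exposed to drugs for seven days before reading.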
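For viability, T/C in this document: 100% = DMSO vehicle control viability in luminescence.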

In the case of `C=CCn1c(=O)c2cnc(Nc3ccc(N4CCN(C)CC4)cc3)nc2n1-c1cccc(C(C)(C)O)n1` + Nc1ccc(C#CCN(C(=O)Cc2ncc(C(F)(F)F)cc2C(F)(F)F)c2ccc(F)cc2)nn1, the IC50 (second compound 0.0316 µM) is reported as 0.732 µM, the IC50 (second compound 0.1 µM) is reported as 0.757 µM and the IC50 (second compound 0.316 µM) is reported as 0.799 µM. The IC50 (second compound 1 µM) was 0.778 µM, the IC50 (second compound 3.16 µM) was 0.901 µM and the IC50 (second compound 10 µM) was 0.833 µM. It also gave a viability, T/C (second compound 0.0316 µM, first compound 0.00316 µM) of 104%, a viability, T/C (second compound 0.0316 µM, first compound 0.01 µM) of 103% and a viability, T/C [1] of 93%. For the same compound, the viability, T/C [2] was 91.8%, the viability, T/C [3] was 92.4% and the viability, T/C [4] was 34.1%. The viability, T/C (second compound 0.1 µM, first compound 0.00316 µM) was 107%, the viability, T/C (second compound 0.1 µM, first compound 0.01 µM) was 103% and the viability, T/C [5] was 97.5%. The viability, T/C [6] was 96.6%, the viability, T/C [7] was 93.2% and the viability, T/C [8] was 35.9%. The viability, T/C (second compound 0.316 µM, first compound 0.00316 µM) was 105%, the viability, T/C (second compound 0.316 µM, first compound 0.01 µM) was 97.4% and the viability, T/C [9] was 92.3%. The viability, T/C [10] was 99.8%, the viability, T/C [11] was 93% and the viability, T/C [12] was 39.5%. The viability, T/C (second compound 1 µM, first compound 0.00316 µM) was 103%, the viability, T/C (second compound 1 µM, first compound 0.01 µM) was 108% and the viability, T/C [13] was 102%. It also gave a viability, T/C [14] of 95.2%, a viability, T/C [15] of 89.7% and a viability, T/C [16] of 39%. The viability, T/C (second compound 3.16 µM, first compound 0.00316 µM) was 108%, the viability, T/C (second compound 3.16 µM, first compound 0.01 µM) was 101% and the viability, T/C [17] was 104%. The viability, T/C [18] was 94.8%, the viability, T/C [19] was 97.8% and the viability, T/C [20] was 45.3%. It also gave a viability, T/C (second compound 10 µM, first compound 0.00316 µM) of 112%, a viability, T/C (second compound 10 µM, first compound 0.01 µM) of 113% and a viability, T/C [21] of 110%. For the same compound, the viability, T/C [22] was 106%, the viability, T/C [23] was 98.5% and the viability, T/C [24] was 40.2%.
`CCc1cc2c(N3CCc4c(cc(Cn5ccnc5)cc4-c4cn(C)nc4C(F)(F)F)C3=O)ccnc2c(OC)n1` + Cc1cccc(N(C)C(=O)C2C(O)CCN2c2nc(C)cc(C(F)(F)F)c2C#N)c1 gave an IC50 (second compound 0.0316 µM) greater than 10 µM, an IC50 (second compound 0.1 µM) greater than 10 µM and an IC50 (second compound 0.316 µM) greater than 10 µM. For the same compound, the IC50 (second compound 1 µM) was greater than 10 µM, the IC50 (second compound 3.16 µM) was greater than 10 µM and the IC50 (second compound 10 µM) was greater than 10 µM. For the same compound, the viability, T/C [1] was 107%, the viability, T/C [2] was 93.3% and the viability, T/C [3] was 93.9%. It also gave a viability, T/C [4] of 78.7%, a viability, T/C [25] of 82.3% and a viability, T/C [26] of 72.7%. For the same compound, the viability, T/C [5] was 99.6%, the viability, T/C [6] was 90.7% and the viability, T/C [7] was 85.4%. It also gave a viability, T/C [8] of 93%, a viability, T/C [27] of 70.7% and a viability, T/C [28] of 63.7%. It also gave a viability, T/C [9] of 108%, a viability, T/C [10] of 92.8% and a viability, T/C [11] of 89.1%. It also gave a viability, T/C [12] of 88.5%, a viability, T/C [29] of 85.2% and a viability, T/C [30] of 72.9%. For the same compound, the viability, T/C [13] was 108%, the viability, T/C [14] was 95.9% and the viability, T/C [15] was 94.6%. It also gave a viability, T/C [16] of 90.1%, a viability, T/C [31] of 90.2% and a viability, T/C [32] of 85.3%. For the same compound, the viability, T/C [17] was 105%, the viability, T/C [18] was 98% and the viability, T/C [19] was 96.8%. It also gave a viability, T/C [20] of 91.2%, a viability, T/C [33] of 91.3% and a viability, T/C [34] of 82.3%. For the same compound, the viability, T/C [21] was 104%, the viability, T/C [22] was 98.9% and the viability, T/C [23] was 99.2%. For the same compound, the viability, T/C [24] was 92.4%, the viability, T/C [35] was 88% and the viability, T/C [36] was 88.7%.
Compound `O=c1[nH]cc(F)c(=O)[nH]1` + Nc1ccc(C#CCN(C(=O)Cc2ncc(C(F)(F)F)cc2C(F)(F)F)c2ccc(F)cc2)nn1 has an IC50 (second compound 0.0316 µM) greater than 10 µM, an IC50 (second compound 0.1 µM) greater than 10 µM and an IC50 (second compound 0.316 µM) greater than 10 µM. It also gave an IC50 (second compound 1 µM) greater than 10 µM, an IC50 (second compound 3.16 µM) greater than 10 µM and an IC50 (second compound 10 µM) greater than 10 µM. The viability, T/C [1] was 99.2%, the viability, T/C [2] was 98.4% and the viability, T/C [3] was 92.5%. The viability, T/C [4] was 90.4%, the viability, T/C [25] was 96.4% and the viability, T/C [26] was 90.3%. It also gave a viability, T/C [5] of 104%, a viability, T/C [6] of 101% and a viability, T/C [7] of 95%. The viability, T/C [8] was 95.9%, the viability, T/C [27] was 91.2% and the viability, T/C [28] was 85.6%. The viability, T/C [9] was 104%, the viability, T/C [10] was 93.5% and the viability, T/C [11] was 96.4%. The viability, T/C [12] was 85.3%, the viability, T/C [29] was 88.2% and the viability, T/C [30] was 96.4%. The viability, T/C [13] was 104%, the viability, T/C [14] was 98.1% and the viability, T/C [15] was 98.5%. The viability, T/C [16] was 92.2%, the viability, T/C [31] was 96% and the viability, T/C [32] was 89.2%. It also gave a viability, T/C [17] of 102%, a viability, T/C [18] of 98.9% and a viability, T/C [19] of 92.8%. The viability, T/C [20] was 96.6%, the viability, T/C [33] was 95.8% and the viability, T/C [34] was 90.1%. For the same compound, the viability, T/C [21] was 116%, the viability, T/C [22] was 95.1% and the viability, T/C [23] was 91.1%. The viability, T/C [24] was 85.9%, the viability, T/C [35] was 93.5% and the viability, T/C [36] was 90.5%.
For `CCCS(=O)(=O)Nc1ccc(F)c(C(=O)c2c[nH]c3ncc(-c4ccc(Cl)cc4)cc23)c1F` + COC1C(OC(N)=O)C(O)C(Oc2ccc3c(O)c(NC(=O)c4ccc(O)c(CC=C(C)C)c4)c(=O)oc3c2C)OC1(C)C, the IC50 (second compound 0.0316 µM) was greater than 10 µM, the IC50 (second compound 0.1 µM) was greater than 10 µM and the IC50 (second compound 0.316 µM) was greater than 10 µM. It also gave an IC50 (second compound 1 µM) greater than 10 µM, an IC50 (second compound 3.16 µM) greater than 10 µM and an IC50 (second compound 10 µM) greater than 10 µM. The viability, T/C [1] was 115%, the viability, T/C [2] was 97.6% and the viability, T/C [3] was 110%. It also gave a viability, T/C [4] of 96.9%, a viability, T/C [25] of 124% and a viability, T/C [26] of 97.9%. For the same compound, the viability, T/C [5] was 105%, the viability, T/C [6] was 103% and the viability, T/C [7] was 110%. The viability, T/C [8] was 108%, the viability, T/C [27] was 107% and the viability, T/C [28] was 113%. It also gave a viability, T/C [9] of 109%, a viability, T/C [10] of 110% and a viability, T/C [11] of 105%. For the same compound, the viability, T/C [12] was 106%, the viability, T/C [29] was 104% and the viability, T/C [30] was 108%. For the same compound, the viability, T/C [13] was 104%, the viability, T/C [14] was 100% and the viability, T/C [15] was 107%. The viability, T/C [16] was 103%, the viability, T/C [31] was 101% and the viability, T/C [32] was 100%. It also gave a viability, T/C [17] of 110%, a viability, T/C [18] of 102% and a viability, T/C [19] of 108%. It also gave a viability, T/C [20] of 97.3%, a viability, T/C [33] of 106% and a viability, T/C [34] of 117%. For the same compound, the viability, T/C [21] was 107%, the viability, T/C [22] was 102% and the viability, T/C [23] was 103%. It also gave a viability, T/C [24] of 101%, a viability, T/C [35] of 124% and a viability, T/C [36] of 117%.

Source: PubChem BioAssay AID1963850 (Molecular Pharmacology Branch, DTP, NCI, 2024)
